Experimental findings from EP0869969B1, “PEPTIDE CONJUGATES, USE THEREOF AS A DRUG, AND COMPOSITIONS CONTAINING them” (INSTITUT EUROPEEN DE BIOLOGIE CELLULAIRE, priority 1995, dated 2003) are described below.

The test system of one assay is rat-OFA. Kind of assay: Wound-healing power in the rat: sutured flank incision, topical application, scar resistance to stretching by dynamometer. The class given is in vivo. The settings on record: for augmentation de la cicatrisation des plaies par rapport aux témoins: 5 jours; for Résistance des cicatrices à l'étirement, Moyenne: mean of treated group (control 24,5 +/- 1,5). The method, then: Déterminer le pouvoir cicatrisant du peptide n° 7 administré chez le rat-OFA par applications topiques aux doses de 0,75 µg, 7,5 µg et 75 µg par animal pendant cinq jours.
I - Animaux : rats de souche OFA, OF1, IFFA-CREDO, pesant de 250 à 300 g.
Conjugué peptidique n° 7, correspondant la formule : Adipoyl-Lys-Lys-Gly-His-Lys-NH2.
Mis en solution dans le propylène glycol aux doses de 1,5 µg/ml, 15 µg/ml, 150 µg/ml.
Après anesthésie générale à l'éther, une incision de 5 cm de long a été pratiquée sur la flanc droit des animaux.
Une suture en fil trinyl 2/0 a été effectuée à raison d'un point tous les 0,5 cm.
Les animaux traités comme les témoins ont subi la même intervention dans les mêmes conditions.
Le traitement a débuté le lendemain de l'intervention sur les lots d'animaux traités aux doses de 0,5 ml de solution peptidique sur chaque incision.
Soit 0,75 µg, 7,5 µg et 75 µg de peptide par animal et par application pendant la durée du traitement, soit 5 jours.
Les animaux ont été mis en observation pendant 9 jours, ils ont ensuite été sacrifiés par une dose létale de penthiobarbital.
Les zones de peau en cours de cicatrisation ont été prélevées et soumises aux "tests" d'étirement au dynamomètre, pour mesurer la résistance de la cicatrice à l'étirement.
Une analyse statistique a été effectuée sur les valeurs de résistance obtenue au dynamomètre. Une analyse de variance et un test de "T" student a été pratiqué sur les valeurs individuelles, afin de définir le seuil de signification des résultats.

Assay [1] relates to fibroblastes humains de plastie mammaire. Kind of assay: Type I collagen synthesis by cultured primary fibroblasts, secondary immunofluorescence (rhodamine/TRITC). The class given is cell-based, humain. The source says: (§1) La mise en évidence de l'influence du conjugué n' 7 sur la synthèse de collagène de type I par des cellules en culture a été réalisée sur deux types cellulaires : • des fibroblastes humains de plastie mammaire au 3ème passage, obtenus dans notre laboratoire de culture cellulaire à l'IEB, • des MRC5, fibroblastes de poumon embryonnaire humain non transformés au passage p38, obtenus à p 25-30 chez ICN FLOW.
(§2) Les cellules sont stimulées ou non avec le conjugué n° 7, puis elles sont observées au microscope pholoniquc à fluorescence après révélation du collagène de type I par une réaction d'immuno-fluorescence secondaire.
(§3) Les cellules sont ensemencées à raison de 70 000 cellules par ml pour les fibroblastes de primoculture et 20 000 pour les MRC5.
(§4) La culture est réalisée en DMEM 10% SVF dans les tubes de Leigton contenant une lamelle dans le fond du tube, volume final : 1,6 ml.
8 tubes sont prévus par type cellulaire : 3 témoins et 5 concentrations.
Ces différentes solutions mères seront ajoutées au milieu de culture au moment du contact produit.
Les dilutions sont réalisées dans du PBS (Eurobio) - BSA 0,1% (Flucka) puis filtrées sur filtres 0,22 µm (Sartorius).
A J0, le milieu est éliminé et remplacé par du milieu frais auquel est ajouté le conjugué n° 7 aux différentes concentrations selon le tableau suivant :
Les témoins TO et T ne reçoivent que du milieu.
Le milieu est élimine; les tubes sont rincés 3 fois avec du DMEM sans sérum à 37° C. Les cellules sont fixées 20 mn à 4°C en présence de PFA 2,5% (Prolabo) dans du Hanks (Eurobio).
3 rinçages en DMEM sans sérum sont effectués suivis de 2 lavages 10 mn en PBS sans calcium ni magnésium (Eurobio). […]
(§5) Les observations microscopiques sont réalisées sur un microscope droit à fluorescence Zeiss (Axioplan), surmonté d'une caméra 3 CCD Sony (MC-3215 P/M) reliée à un moniteur vidéo Trinitron avec écran couleur Sony. […]
(§6) Les cellules sont d'abord observées en contraste interférentiel et/ou de phase. Quand un champ est sélectionné, l'image est enregistrée, puis sans bouger d'endroit l'observation est réalisée en fluorescence et enregistrée. […]

Assay [2] concerns MRC5, fibroblastes de poumon embryonnaire humain. Kind of assay: Type I collagen synthesis by cultured MRC5 fibroblasts, secondary immunofluorescence. In kind it is cell-based. As to conditions: MRC5, results not shown.
Source text: as §1, §2, §3, §4
8 tubes sont prévus par type cellulaire : 3 témoins et 5 concentrations. […]
as §5, §6

Structures are written as SMILES. Where “and” joins values, the source holds several entries; their conditions need not be identical. Identical values can stand only once. Starred links: 1 amine or outer side, 2 acyl side, 3 side chain; linkers in the order of their positions; H or OH if unused. Residues, ends and D or L forms follow the SMILES beside them. Adipoyl = O=C(CCCCC(=O)[*:2])[*:1]

Turning to `NCCCC[C@H](NC(=O)[C@H](Cc1c[nH]cn1)NC(=O)CNC(=O)[C@H](CCCCN)NC(=O)[C@H](CCCCN)NC(=O)CCCCC(=O)O)C(N)=O` [conjugué 7, Adipoyl-Lys-Lys-Gly-His-Lys-NH2] (Adipoyl-KKGHK-NH2), the “augmentation de la cicatrisation des plaies par rapport aux témoins” value with rat-OFA (topical, 0,75 µg par jour) is given as 14,5%; with rat-OFA (topical, 75 µg par jour) it was 59,6%; with rat-OFA (topical, 7,5 µg par jour), 30,9%. Moreover, the “Résistance des cicatrices à l'étirement "dynamométrie"” value in the assay on rat-OFA (topical, 0,75 µg/jour/5 jours, individual treated animals, sacrifice after 9 days) is 28,5 Dynes and 26,1 Dynes and 29,3 Dynes and 27,7 Dynes and 28,6 Dynes. Further, the “Résistance des cicatrices à l'étirement "dynamométrie", Moyenne” value in the assay with rat-OFA (topical, 0,75 µg/jour/5 jours, mean of treated group (control 24,5+/-1,5)) was 28,0+/-1,2 Dynes. Moreover, the “Résistance des cicatrices à l'étirement, Dynes” value is 32,6 Dynes and 30,4 Dynes and 33,1 Dynes and 32,3 Dynes and 31,8 Dynes in the assay with rat-OFA (topical, 7,5 µg/jour/5 jours (Tableau n° 2), individual treated animals); 39,8 Dynes and 41,3 Dynes and 37,5 Dynes and 36,2 Dynes and 40,7 Dynes with rat-OFA (topical, Tableau n° 3, 7,5 µg/jour/5 jours, individual treated animals). The “Résistance des cicatrices à l'étirement, Moyenne” value in the assay on rat-OFA (topical, 7,5 µg/jour/5 jours (Tableau n° 2)) is recorded as 32,0 +/- 1,0 Dynes; with rat-OFA (topical, Tableau n° 3, 7,5 µg/jour/5 jours), 39,1+/-2,2 Dynes. Moreover, the “aspect des cicatrisations au 9ème jour” value with rat-OFA (topical, day 9) is listed as “cicatrisation parfaitement plate, avec absence de bourrelets cicatriciels”. For the same compound, the action cicatrisante entry with rat-OFA (topical, overall conclusion) is on record as “action cicatrisante hautement significative”. Also, the “synthèse de collagène de type I” value in assay [1] (10-11 M, fibroblastes de primoculture) was “stimule très significativement”; in assay [2], “mêmes tendances”. Besides, the “luminosité moyenne du rouge sur l'ensemble de l'image” value in assay [1] (10-11 M, untreated cells 32,78) is listed as 54,8. For the same compound, the “stimulation de la synthèse de collagène de type 1” value in assay [1] (fibroblastes humains de primocultures, versus untreated cells) is “+67%”.
